Test results: ChEMBL document CHEMBL5107956, “Natural products from mangrove sediments-derived microbes: Structural diversity, bioactivities, biosynthesis, and total synthesis” (Eur J Med Chem, 2022)
≈ marks a conversion by molar mass, not a printed value.

What was measured:
[1] = test system: HeLa; assay: Cytotoxicity against human HeLa cells assessed as cell growth inhibition; assay type: functional, cell-based
[2] = test system: Candida albicans; assay: Antifungal activity against Candida albicans ATCC 10231 assessed as fungal growth inhibition by agar dilution method; assay type: functional
[3] = test system: Influenza A virus; assay: Antiviral activity against Influenza A virus H1N1; assay type: functional, organism-based
[4] = test system: MCF7; assay: Cytotoxicity against human MCF7 cells assessed as cell growth inhibition; assay type: functional, cell-based
[5] = test system: Staphylococcus aureus; assay: Antibacterial activity against Staphylococcus aureus S014 assessed as bacterial cell growth inhibition by agar dilution method; assay type: functional
[6] = test system: Bacillus subtilis; assay: Antibacterial activity against Bacillus subtilis S028 assessed as bacterial cell growth inhibition by agar dilution method; assay type: functional
[7] = test system: Escherichia coli; assay: Antibacterial activity against Escherichia coli S002 assessed as bacterial cell growth inhibition by agar dilution method; assay type: functional

| Structure (SMILES) | IC50 [1] | MIC [2] | IC50 [4] | MIC [5] | MIC [6] | MIC [7] | other results |
| --- | --- | --- | --- | --- | --- | --- | --- |
| CS[C@H]1NC(=O)[C@@](Cc2ccc(CCC=C(C)C)cc2)(SC)N(C)C1=O | 4200 nM |  |  |  |  |  |  |
| CCCC(CC)COC(=O)CC(=O)OC1CC(O)CC(O)CC(O)/C(C)=C/C=C/C(C)C(C(C)CCC/C=C/CCCN/C(N)=N/C)OC(=O)/C(C)=C/C=C/C(C)C(O)CC(O)C(C)C(O)CCC(C)C(O)CC2(O)OC(C1)CC(O)C2O (centres undefined) |  | 1.65 µg/mL (≈ 1.4 µM) |  |  |  |  |  |
| CC(=O)C[C@H](c1nc2ccccc2c(=O)n1[C@@H]1C[C@]2(OC1=O)c1ccccc1N1C(=O)C(C)(C)N(O)[C@H]12)C(C)C |  |  |  |  |  |  | IC50 [3]: 82000 nM |
| CC[C@@H]1[C@@H](C)O[C@@](O)([C@@H](C)[C@H](O)[C@H](C)[C@H]2OC(=O)/C=C/C=C/[C@H](C)[C@@H]([C@@H](C)[C@@H](O)[C@@H](C)[C@@]3(O)C[C@@H](O[C@H]4C[C@H](O)[C@H](O)[C@H](C)O4)[C@H](CC)[C@@H](C)O3)OC(=O)/C=C/C=C/[C@@H]2C)C[C@H]1OC | 190 nM |  | 190 nM |  |  |  |  |
| CC(C)=C1NC(=O)[C@@H](C[C@]2(O)c3ccccc3N3C(=O)[C@H](C)N[C@H]32)n2c1nc1ccccc1c2=O |  |  |  |  |  |  | IC50 [3]: 82000 nM |
| C/N=C(/NC)NCCC/C=C/CCC[C@H](C)[C@@H]1OC(=O)/C(C)=C/C=C/[C@H](C)[C@@H](O)C[C@H](O)[C@@H](C)[C@H](O)CC[C@H](C)[C@@H](O)C[C@@]2(O)O[C@@H](C[C@@H](OC(=O)CCCCCCCCC(C)C)C[C@H](O)C[C@@H](O)C[C@H](O)/C(C)=C/C=C/[C@H]1C)C[C@@H](O)[C@@H]2O |  | 1.65 µg/mL (≈ 1.38 µM) |  | 0.39 µg/mL (≈ 0.327 µM) | 0.2 µg/mL (≈ 0.168 µM) | 3.13 µg/mL (≈ 2.62 µM) |  |
| CCCC(CC)COC(=O)CC(=O)OC1CC(O)CC(O)CC(O)/C(C)=C/C=C/C(C)C(C(C)CCC/C=C/CCCN/C(=N/C)NC)OC(=O)/C(C)=C/C=C/C(C)C(O)CC(O)C(C)C(O)CCC(C)C(O)CC2(O)OC(C1)CC(O)C2O (centres undefined) |  | 1.65 µg/mL (≈ 1.38 µM) |  |  |  |  |  |
| O=C1NC(=O)[C@H](Cc2c[nH]c3ccccc23)n2c1nc1ccccc1c2=O |  |  |  |  |  |  | IC50 [3]: 82000 nM |
| CC[C@@H]1[C@@H](C)O[C@@](O)([C@@H](C)[C@H](O)[C@H](C)[C@H]2OC(=O)/C=C/C=C/[C@H](C)[C@@H]([C@@H](C)[C@@H](O)[C@H](C)[C@@]3(O)C[C@@H](O[C@H]4C[C@H](O)[C@H](O)[C@H](C)O4)[C@H](CC)[C@@H](C)O3)OC(=O)/C=C/C=C/[C@@H]2C)C[C@H]1O[C@H]1C[C@H](O)[C@H](O)[C@H](C)O1 | 190 nM |  | 190 nM |  |  |  |  |
| CCCC(CC)COC(=O)CC(=O)OC1CC(O)CC2CC(O)C(O)C(O)(CC(O)C(C)CCC(O)C(C)C(O)CC(O)C(C)/C=C/C=C(\C)C(=O)OC(C(C)CCC/C=C/CCCN/C(N)=N\C)C(C)/C=C/C=C(\C)C(O)CC(O)C1)O2 (centres undefined) |  | 1.65 µg/mL (≈ 1.4 µM) |  | 0.39 µg/mL (≈ 0.33 µM) | 0.2 µg/mL (≈ 0.169 µM) | 3.13 µg/mL (≈ 2.65 µM) |  |
| CC[C@@H]1[C@@H](C)O[C@@](O)([C@@H](C)[C@H](O)[C@H](C)[C@H]2OC(=O)/C=C/C=C/[C@H](C)[C@@H]([C@@H](C)[C@@H](O)[C@H](C)[C@@]3(O)C[C@@H](O[C@H]4C[C@H](O)[C@H](O)[C@H](C)O4)[C@H](C)[C@@H](C)O3)OC(=O)/C=C/C=C/[C@@H]2C)C[C@H]1O[C@H]1C[C@H](O)[C@H](O)[C@H](C)O1 | 190 nM |  | 190 nM |  |  |  |  |
| CC[C@@H]1[C@@H](C)O[C@@](OC)([C@@H](C)[C@H](O)[C@H](C)[C@H]2OC(=O)/C=C/C=C/[C@H](C)[C@@H]([C@@H](C)[C@@H](O)[C@H](C)[C@@]3(O)C[C@@H](O[C@H]4C[C@H](O)[C@H](O)[C@H](C)O4)[C@H](CC)[C@@H](C)O3)OC(=O)/C=C/C=C/[C@@H]2C)C[C@H]1O[C@H]1C[C@H](O)[C@H](O)[C@H](C)O1 | 190 nM |  | 190 nM |  |  |  |  |
| CC[C@@H]1[C@@H](C)O[C@@](O)([C@@H](C)[C@H](O)[C@H](C)[C@H]2OC(=O)/C=C/C=C/[C@H](C)[C@@H]([C@@H](C)[C@@H](O)[C@H](C)[C@@]3(O)C[C@@H](O[C@H]4C[C@H](O)[C@H](O)[C@H](C)O4)[C@H](CC)[C@@H](C)O3)OC(=O)/C(C)=C/C=C/[C@@H]2C)C[C@H]1O[C@H]1C[C@H](O)[C@H](O)[C@H](C)O1 | 190 nM |  | 190 nM |  |  |  |  |
| CC(=O)C[C@H](c1nc2ccccc2c(=O)n1[C@@H]1C[C@]2(OC1=O)c1ccccc1N1C(=O)C(C)(C)N[C@H]12)C(C)C |  |  |  |  |  |  | IC50 [3]: 82000 nM |
| C/N=C(\NC)NCCC/C=C/CCC[C@H](C)[C@@H]1OC(=O)/C(C)=C/C=C/[C@H](C)[C@@H](O)C[C@H](O)[C@@H](C)[C@H](O)CC[C@H](C)[C@@H](O)C[C@@]2(O)O[C@@H](C[C@@H](OC(=O)C(N)C(C)C)C[C@H](O)C[C@@H](O)C[C@H](O)/C(C)=C/C=C/[C@H]1C)C[C@@H](O)[C@@H]2O (some centres undefined) |  | 1.65 µg/mL (≈ 1.49 µM) |  | 0.39 µg/mL (≈ 0.352 µM) | 0.2 µg/mL (≈ 0.18 µM) | 3.13 µg/mL (≈ 2.82 µM) |  |
| C/N=C(/N)NCCC/C=C/CCC[C@H](C)[C@@H]1OC(=O)/C(C)=C/C=C/[C@H](C)[C@@H](O)C[C@H](O)[C@@H](C)[C@H](O)CC[C@H](C)[C@@H](O)C[C@@]2(O)O[C@@H](C[C@@H](OC(=O)CCCCCCCC(C)C)C[C@H](O)C[C@@H](O)C[C@H](O)/C(C)=C/C=C/[C@H]1C)C[C@@H](O)[C@@H]2O |  | 1.65 µg/mL (≈ 1.42 µM) |  | 0.39 µg/mL (≈ 0.335 µM) | 0.2 µg/mL (≈ 0.172 µM) | 3.13 µg/mL (≈ 2.69 µM) |  |
| CC[C@@H]1[C@@H](C)O[C@@](OC)([C@@H](C)[C@H](O)[C@H](C)[C@H]2OC(=O)/C=C/C=C/[C@H](C)[C@@H]([C@@H](C)[C@@H](O)[C@H](C)[C@@]3(OC)C[C@@H](O[C@H]4C[C@H](O)[C@H](O)[C@H](C)O4)[C@H](CC)[C@@H](C)O3)OC(=O)/C(C)=C/C=C/[C@@H]2C)C[C@H]1O[C@H]1C[C@H](O)[C@H](O)[C@H](C)O1 | 190 nM |  | 190 nM |  |  |  |  |
| C/C1=C\C=C\[C@H](C)[C@@H](O)C[C@H](O)[C@@H](C)[C@H](O)CC[C@H](C)[C@@H](O)C[C@@]2(O)O[C@@H](C[C@@H](OC(=O)CCCCC(C)C)C[C@H](O)C[C@@H](O)C[C@H](O)/C(C)=C/C=C/[C@@H](C)[C@H]([C@@H](C)CCC/C=C/CCCNC(=N)N)OC1=O)C[C@@H](O)[C@@H]2O |  | 1.65 µg/mL (≈ 1.49 µM) |  | 0.39 µg/mL (≈ 0.352 µM) | 0.2 µg/mL (≈ 0.18 µM) | 3.13 µg/mL (≈ 2.82 µM) |  |
| C/N=C(/N)NCCC/C=C/CCC[C@H](C)[C@@H]1OC(=O)/C(C)=C/C=C/[C@H](C)[C@@H](O)C[C@H](O)[C@@H](C)[C@H](O)CC[C@H](C)[C@@H](O)C[C@@]2(O)O[C@@H](C[C@@H](OC(=O)CCCCC(C)C)C[C@H](O)C[C@@H](O)C[C@H](O)/C(C)=C/C=C/[C@H]1C)C[C@@H](O)[C@@H]2O |  | 1.65 µg/mL (≈ 1.47 µM) |  | 0.39 µg/mL (≈ 0.347 µM) | 0.2 µg/mL (≈ 0.178 µM) | 3.13 µg/mL (≈ 2.79 µM) |  |
| CC[C@@H]1[C@@H](C)O[C@@](OC)([C@@H](C)[C@H](O)[C@H](C)[C@H]2OC(=O)/C=C/C=C/[C@H](C)[C@@H]([C@@H](C)[C@@H](O)[C@H](C)[C@@]3(OC)C[C@@H](O[C@H]4C[C@H](O)[C@H](O)[C@H](C)O4)[C@H](CC)[C@@H](C)O3)OC(=O)/C=C/C=C/[C@@H]2C)C[C@H]1O[C@H]1C[C@H](O)[C@H](O)[C@H](C)O1 | 190 nM |  | 190 nM |  |  |  |  |
| C/N=C(\NC)NCCC/C=C/CCC[C@H](C)[C@@H]1OC(=O)/C(C)=C/C=C/[C@H](C)[C@@H](O)C[C@H](O)[C@@H](C)[C@H](O)CC[C@H](C)[C@@H](O)C[C@@]2(O)O[C@@H](C[C@@H](O)C[C@H](OC(=O)CC(=O)O)C[C@@H](O)C[C@H](O)/C(C)=C/C=C/[C@H]1C)C[C@@H](O)[C@@H]2O |  | 1.65 µg/mL (≈ 1.5 µM) |  | 0.39 µg/mL (≈ 0.356 µM) | 0.2 µg/mL (≈ 0.182 µM) | 3.13 µg/mL (≈ 2.85 µM) |  |
